Data reported in the NIST ThermoML archive (doi:10.1016/j.jct.2016.05.023).
Numbers after ± are expanded uncertainties.

Conditions: Crystal; DTA

Structure (SMILES) | Normal melting temperature [°C]
CCn1cc[n+](C)c1.[Cl-] [1-ethyl-3-methylimidazolium chloride] | 84 ± 2
CC(=O)[O-].CCCCCCCCCCCCCC[P+](CCCCCC)(CCCCCC)CCCCCC [trihexyl(tetradecyl)phosphonium acetate] | -67 ± 2
CCCCCCCCCCCCCC[P+](CCCCCC)(CCCCCC)CCCCCC.[Cl-] [trihexyl(tetradecyl)phosphonium chloride] | -66 ± 2

Same assay, conditions: Glass; DSC

Structure (SMILES) | Glass transition temperature [°C]
CCCCn1cc[n+](C)c1.[Cl-] [1-butyl-3-methylimidazolium chloride] | -52 ± 2
CCCCCCn1cc[n+](C)c1.[Cl-] [1-hexyl-3-methylimidazolium chloride] | -65 ± 2
CCCCCCCC[n+]1ccn(C)c1.[Cl-] [1-methyl-3-octylimidazolium chloride] | -74 ± 2

The next lines start with the values.

Glass transition temperature [°C] | Structure (SMILES)
-63 ± 2 | CC(=O)[O-].CCCCn1cc[n+](C)c1 [1-butyl-3-methylimidazolium acetate]
-71 ± 2 | CC(=O)[O-].CCn1cc[n+](C)c1 [1-ethyl-3-methylimidazolium acetate]
